Experimental data: patent US11208468B2, “Methods and compositions for treating melanoma” (The Wistar Institute of Anatomy and Biology, priority 2016, dated 2021)

Tested on: melanoma patient PBMC samples WM35, WM3457 and 3451
Experiment: Proliferative response, 3HTdR incorporation assay with peptide-pulsed monocytes
Type: cell-based, human
Conditions: monocytes pulsed 8 hours with 25 μM peptide, cultured with PBMC for 5 days; each sample assayed
Experimental: The peptides were screened for T-helper sequences (Th): Peptide P8 is amino acids residues 608-622 of BRAF, i.e., […] (SEQ ID NO: 15). Peptide P9 is amino acids residues […] of BRAF, i.e., […] (SEQ ID NO: 16). Peptide P10 is amino acids residues […] of BRAF, i.e., […] (SEQ ID NO: 17). These peptides bind to HLA-DR alleles using computer algorithms, as disclosed in Example 1 below. Proliferative responses were determined by standard ^3HTdR incorporation assay.
A number of such peptides were assayed as follows: Adherent monocytes (5×10^4/well) were pulsed for 8 hours with synthetic peptides (25 μM): Peptide 8 (SEQ ID NO:15), Peptide 9 (SEQ ID NO:16), and Peptide 10 (SEQ ID NO: 17). At the end of incubation, excess peptides were removed and the monocytes were cultured with one of three melanoma patient PBMC samples labeled WM35, WM3457 and 3451 (1×10^5) for 5 days.
Data are expressed as mean cpm (triplicate determinations) plus SD (bar) of ^3HTdR incorporation.

Sequence | Proliferative response (3HTdR incorporation, mean cpm) versus control peptide
EDLTVKIGDFGLATV (listed as Homo sapiens) [Peptide 9] | Significantly (p<0.01) different values compared to control
SHQFEQLSGSILWHA (listed as Homo sapiens) [Peptide 8] | Significantly (p<0.01) different values compared to control
